pIC50: −log10 of the molar value. ≈ marks a conversion by molar mass, not a printed value. Where two headings read alike, the source gives them in different places. Bounds are passed on as bounds.

Assay [1] concerns C. parapsilosis ATCC 22019. Kind of assay: Anti-Fungal Activity Assay (broth microtiter MIC), C. parapsilosis. It counts as cell-based, Candida parapsilosis. The conditions noted are these: Lodderomyces parapsilosis, ATCC22019, 48 h, 3 replicates; MIC recorded at 48 h; read-out: MIC C. parapsilosis ATCC 22019. Put shortly:
(§1)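 Susceptibility testing used direct colony suspensions in RPMI 1640+MOPS from Sabouraud dextrose agar grown at 35° C. Endpoints were visual MICs at 48 h under CLSI M27-A3 microtiter conditions, plus a 24 h reading for soraphen.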

Assay [2] relates to C. krusei ATCC 6258. Kind of assay: Anti-Fungal Activity Assay (broth microtiter MIC), C. krusei. In kind it is cell-based, Candida krusei. Conditions: Pichia kudriavzevii, ATCC6258, 48 h, 3 replicates; MIC recorded at 48 h; read-out: MIC C. krusei ATCC 6258. Put shortly:
as §1

The target of assay [3] is Fungal ACC2 (UniProt Q00955). The conditions noted are these: read-out: Fungal ACC2 (IC50, in vitro ACC2 inhibition).
Chain of Fungal ACC2 (Q00955 whole entry): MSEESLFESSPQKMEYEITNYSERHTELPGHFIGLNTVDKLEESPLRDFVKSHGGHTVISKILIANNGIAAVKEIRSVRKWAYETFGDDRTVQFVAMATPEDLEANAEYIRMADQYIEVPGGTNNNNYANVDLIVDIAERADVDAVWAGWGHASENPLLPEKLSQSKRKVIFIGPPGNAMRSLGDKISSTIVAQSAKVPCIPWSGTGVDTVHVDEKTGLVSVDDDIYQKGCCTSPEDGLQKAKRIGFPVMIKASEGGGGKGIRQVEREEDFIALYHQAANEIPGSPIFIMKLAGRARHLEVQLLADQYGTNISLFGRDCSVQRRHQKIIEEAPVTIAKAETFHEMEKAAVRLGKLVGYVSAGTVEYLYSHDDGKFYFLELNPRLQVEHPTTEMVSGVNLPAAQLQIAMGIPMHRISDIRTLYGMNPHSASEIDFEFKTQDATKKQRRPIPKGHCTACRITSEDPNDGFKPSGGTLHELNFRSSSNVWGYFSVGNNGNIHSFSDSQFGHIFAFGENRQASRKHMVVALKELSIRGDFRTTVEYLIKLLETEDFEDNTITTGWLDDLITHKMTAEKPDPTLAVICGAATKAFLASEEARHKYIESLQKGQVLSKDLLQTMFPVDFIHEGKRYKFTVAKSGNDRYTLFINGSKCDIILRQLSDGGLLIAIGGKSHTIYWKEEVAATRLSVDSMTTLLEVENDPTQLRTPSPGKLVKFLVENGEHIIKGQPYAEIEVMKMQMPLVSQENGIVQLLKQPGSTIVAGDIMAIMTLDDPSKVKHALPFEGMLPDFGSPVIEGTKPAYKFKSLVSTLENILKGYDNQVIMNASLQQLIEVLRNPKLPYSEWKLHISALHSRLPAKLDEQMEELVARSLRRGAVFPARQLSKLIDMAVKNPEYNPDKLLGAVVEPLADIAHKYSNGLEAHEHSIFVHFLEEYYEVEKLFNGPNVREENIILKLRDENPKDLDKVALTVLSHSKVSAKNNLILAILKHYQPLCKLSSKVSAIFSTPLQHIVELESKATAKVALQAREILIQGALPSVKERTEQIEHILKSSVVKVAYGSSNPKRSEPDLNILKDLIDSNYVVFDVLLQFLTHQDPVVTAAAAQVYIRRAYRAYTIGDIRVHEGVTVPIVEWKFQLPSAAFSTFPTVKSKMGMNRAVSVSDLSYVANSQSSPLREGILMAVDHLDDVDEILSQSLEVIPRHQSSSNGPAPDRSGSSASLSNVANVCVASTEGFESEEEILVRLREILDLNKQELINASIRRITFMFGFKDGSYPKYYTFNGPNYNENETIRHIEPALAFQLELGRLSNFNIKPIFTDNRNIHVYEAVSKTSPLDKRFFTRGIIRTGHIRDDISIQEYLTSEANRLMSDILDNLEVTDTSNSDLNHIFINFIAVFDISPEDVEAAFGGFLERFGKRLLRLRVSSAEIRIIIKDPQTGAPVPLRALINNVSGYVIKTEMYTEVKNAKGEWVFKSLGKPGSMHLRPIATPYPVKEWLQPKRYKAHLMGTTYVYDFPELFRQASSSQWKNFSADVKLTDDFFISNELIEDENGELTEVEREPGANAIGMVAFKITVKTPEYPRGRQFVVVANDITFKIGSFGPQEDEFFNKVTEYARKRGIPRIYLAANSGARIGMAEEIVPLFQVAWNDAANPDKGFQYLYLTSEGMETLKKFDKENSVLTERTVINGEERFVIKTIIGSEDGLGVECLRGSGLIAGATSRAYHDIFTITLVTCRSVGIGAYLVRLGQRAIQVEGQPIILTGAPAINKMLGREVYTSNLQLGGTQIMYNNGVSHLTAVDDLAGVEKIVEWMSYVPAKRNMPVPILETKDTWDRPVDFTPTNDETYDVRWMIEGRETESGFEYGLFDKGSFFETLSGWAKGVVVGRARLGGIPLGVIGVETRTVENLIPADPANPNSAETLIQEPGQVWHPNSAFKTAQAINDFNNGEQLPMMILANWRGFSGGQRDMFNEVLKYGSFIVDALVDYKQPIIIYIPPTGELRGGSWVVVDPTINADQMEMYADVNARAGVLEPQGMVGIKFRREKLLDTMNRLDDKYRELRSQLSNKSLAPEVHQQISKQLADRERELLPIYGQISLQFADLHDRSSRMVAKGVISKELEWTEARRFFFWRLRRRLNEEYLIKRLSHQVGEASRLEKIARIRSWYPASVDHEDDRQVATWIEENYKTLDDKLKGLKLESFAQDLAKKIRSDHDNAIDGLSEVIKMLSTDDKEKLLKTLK
The test system of assay [4] is Candida glabrata. Kind of assay: In vitro antifungal assay (broth microdilution, Micromyx), C. glabrata. In kind it is cell-based. Conditions: Nakaseomyces glabratus, ATCC90030, strain 0635 ATCC 90030, 35° C., approximately 24-48 hr. The procedure:
(§2) Compounds of the present invention were also assayed in an in vitro antifungal assay against Candida glabrata, Candida tropicalis, and Aspergillus fumigatus, performed by Micromyx, a representative procedure of which follows. The test organisms were reference strains acquired from the American Type Culture Collection (ATCC). Upon receipt, the isolates were streaked onto Sabouraud Dextrose Agar (SDA). Colonies were harvested from these plates and a cell suspension was prepared in Sabouraud Dextrose Broth (Becton Dickinson, Sparks, Md.) containing cryoprotectant. Aliquots were then frozen at −80° C. Prior to the assay, the frozen seeds of all yeast isolates to be tested in that session were thawed and streaked for isolation onto SDA and incubated overnight at 35° C. All fungal isolates were previously streaked on SDA and incubated at 35° C. until spore formation occurred, followed by harvesting of the spores in sterile 0.85% saline and enumeration. The spore preps were stored at 4° C. Yeast and fungal isolates were tested in RPMI medium (Catalog No. SH30011.04; Lot No. AYB60287A; HyClone Labs, Logan, Utah) buffered with 0.165 M MOPS (Catalog No. 475898; Lot No. D00165859; CalBiochem, La Jolla, Calif.). The pH of the medium was adjusted to 7.0 with 1 N NaOH, sterile filtered using a 0.2 μm PES filter, and stored at 4° C. until used. All of the above media was prepared and stored according to guidelines from the Clinical and Laboratory Standards Institute (CLSI; 2-4). The broth microdilution assay method essentially followed the procedure described by CLSI (2-4) and employed automated liquid handlers to conduct serial dilutions and liquid transfers. Automated liquid handlers included the Multidrop 384 (Labsystems, Helsinki, Finland) and Biomek 2000 (Beckman Coulter, Fullerton Calif. The wells in columns 2-12 in standard 96-well microdilution plates (Costar 3795) were filled with 150 μl of the correct diluent. These would become the ‘mother plates’ from which ‘daughter’ or test plates would be prepared. The drugs (300 μL at 40× the desired top concentration in the test plates) were dispensed into the appropriate well in Column 1 of the mother plates. The Biomek 2000 was used to make serial two-fold dilutions through Column 11 in the “mother plate”. The wells of Column 12 contained no drug and were the organism growth control wells. The daughter plates were loaded with 185 μL per well of the appropriate test media using the Multidrop 384. The daughter plates were prepared using the Biomek FX which transferred 5 μL of drug solution from each well of a mother plate to the corresponding well of the correct daughter plate in a single step. A standardized inoculum of each organism was prepared per CLSI methods (2-4). For yeast isolates, colonies were picked from the primary plate and a suspension was prepared to equal a 0.5 McFarland turbidity standard. Suspensions were then diluted 1:100 in RPMI 1640 medium, resulting in a final inoculum concentration of 0.5-2.5×10^3 CFU/mL per test well. […] Standardized inoculum suspensions were transferred to compartments of sterile reservoirs divided by length (Beckman Coulter), and the Biomek 2000 was used to inoculate all plates. Daughter plates were placed on the Biomek 2000 in reverse orientation so that plates were inoculated from low to high drug concentration. The Biomek 2000 delivered 10 μL of standardized inoculum into each well of the appropriate daughter plate for an additional 1:20 dilution. Thus, the wells of the daughter plates ultimately contained 185 μL of the appropriate media, 5 μL of drug solution, and 10 μL of inoculum. The final concentration of DMSO (if used as a solvent) in the test well was 2.5%. Plates were stacked 3 high, covered with a lid on the top plate, placed into plastic bags, and incubated at 35° C. for approximately 24-48 hr for all yeast isolates, and 48 hr for all fungal isolates. Plates were viewed from the bottom using a plate viewer. […]
Background: Broth dilution looks for growth in wells or tubes with falling amounts of substance.

In assay [5] the test system is C. albicans ATCC 90028. Kind of assay: Anti-Fungal Activity Assay (broth microtiter MIC), C. albicans. In kind it is cell-based, Candida albicans. Conditions: Candida albicans, ATCC90028, 48 h, 3 replicates; MIC recorded at 48 h; read-out: MIC C. albicans ATCC 90028. In a few lines:
as §1

Assay [6] relates to Aspergillus fumigatus. Kind of assay: In vitro antifungal assay (broth microdilution, Micromyx), A. fumigatus. The conditions noted are these: 48 hr. It counts as cell-based. The protocol:
as §2

The target in assay [7] is Human ACC2 (Homo sapiens, UniProt O00763). Kind of assay: In vitro ACC2 inhibition assay (ADP-Glo), human ACC2. The conditions noted are these: 5 nM ACC2, 20 μM ATP, 20 μM acetyl-CoA. In kind it is biochemical. For orientation: ADP-Glo turns the ADP formed in a reaction into a luminescent signal.
Chain of Human ACC2 (O00763 whole entry): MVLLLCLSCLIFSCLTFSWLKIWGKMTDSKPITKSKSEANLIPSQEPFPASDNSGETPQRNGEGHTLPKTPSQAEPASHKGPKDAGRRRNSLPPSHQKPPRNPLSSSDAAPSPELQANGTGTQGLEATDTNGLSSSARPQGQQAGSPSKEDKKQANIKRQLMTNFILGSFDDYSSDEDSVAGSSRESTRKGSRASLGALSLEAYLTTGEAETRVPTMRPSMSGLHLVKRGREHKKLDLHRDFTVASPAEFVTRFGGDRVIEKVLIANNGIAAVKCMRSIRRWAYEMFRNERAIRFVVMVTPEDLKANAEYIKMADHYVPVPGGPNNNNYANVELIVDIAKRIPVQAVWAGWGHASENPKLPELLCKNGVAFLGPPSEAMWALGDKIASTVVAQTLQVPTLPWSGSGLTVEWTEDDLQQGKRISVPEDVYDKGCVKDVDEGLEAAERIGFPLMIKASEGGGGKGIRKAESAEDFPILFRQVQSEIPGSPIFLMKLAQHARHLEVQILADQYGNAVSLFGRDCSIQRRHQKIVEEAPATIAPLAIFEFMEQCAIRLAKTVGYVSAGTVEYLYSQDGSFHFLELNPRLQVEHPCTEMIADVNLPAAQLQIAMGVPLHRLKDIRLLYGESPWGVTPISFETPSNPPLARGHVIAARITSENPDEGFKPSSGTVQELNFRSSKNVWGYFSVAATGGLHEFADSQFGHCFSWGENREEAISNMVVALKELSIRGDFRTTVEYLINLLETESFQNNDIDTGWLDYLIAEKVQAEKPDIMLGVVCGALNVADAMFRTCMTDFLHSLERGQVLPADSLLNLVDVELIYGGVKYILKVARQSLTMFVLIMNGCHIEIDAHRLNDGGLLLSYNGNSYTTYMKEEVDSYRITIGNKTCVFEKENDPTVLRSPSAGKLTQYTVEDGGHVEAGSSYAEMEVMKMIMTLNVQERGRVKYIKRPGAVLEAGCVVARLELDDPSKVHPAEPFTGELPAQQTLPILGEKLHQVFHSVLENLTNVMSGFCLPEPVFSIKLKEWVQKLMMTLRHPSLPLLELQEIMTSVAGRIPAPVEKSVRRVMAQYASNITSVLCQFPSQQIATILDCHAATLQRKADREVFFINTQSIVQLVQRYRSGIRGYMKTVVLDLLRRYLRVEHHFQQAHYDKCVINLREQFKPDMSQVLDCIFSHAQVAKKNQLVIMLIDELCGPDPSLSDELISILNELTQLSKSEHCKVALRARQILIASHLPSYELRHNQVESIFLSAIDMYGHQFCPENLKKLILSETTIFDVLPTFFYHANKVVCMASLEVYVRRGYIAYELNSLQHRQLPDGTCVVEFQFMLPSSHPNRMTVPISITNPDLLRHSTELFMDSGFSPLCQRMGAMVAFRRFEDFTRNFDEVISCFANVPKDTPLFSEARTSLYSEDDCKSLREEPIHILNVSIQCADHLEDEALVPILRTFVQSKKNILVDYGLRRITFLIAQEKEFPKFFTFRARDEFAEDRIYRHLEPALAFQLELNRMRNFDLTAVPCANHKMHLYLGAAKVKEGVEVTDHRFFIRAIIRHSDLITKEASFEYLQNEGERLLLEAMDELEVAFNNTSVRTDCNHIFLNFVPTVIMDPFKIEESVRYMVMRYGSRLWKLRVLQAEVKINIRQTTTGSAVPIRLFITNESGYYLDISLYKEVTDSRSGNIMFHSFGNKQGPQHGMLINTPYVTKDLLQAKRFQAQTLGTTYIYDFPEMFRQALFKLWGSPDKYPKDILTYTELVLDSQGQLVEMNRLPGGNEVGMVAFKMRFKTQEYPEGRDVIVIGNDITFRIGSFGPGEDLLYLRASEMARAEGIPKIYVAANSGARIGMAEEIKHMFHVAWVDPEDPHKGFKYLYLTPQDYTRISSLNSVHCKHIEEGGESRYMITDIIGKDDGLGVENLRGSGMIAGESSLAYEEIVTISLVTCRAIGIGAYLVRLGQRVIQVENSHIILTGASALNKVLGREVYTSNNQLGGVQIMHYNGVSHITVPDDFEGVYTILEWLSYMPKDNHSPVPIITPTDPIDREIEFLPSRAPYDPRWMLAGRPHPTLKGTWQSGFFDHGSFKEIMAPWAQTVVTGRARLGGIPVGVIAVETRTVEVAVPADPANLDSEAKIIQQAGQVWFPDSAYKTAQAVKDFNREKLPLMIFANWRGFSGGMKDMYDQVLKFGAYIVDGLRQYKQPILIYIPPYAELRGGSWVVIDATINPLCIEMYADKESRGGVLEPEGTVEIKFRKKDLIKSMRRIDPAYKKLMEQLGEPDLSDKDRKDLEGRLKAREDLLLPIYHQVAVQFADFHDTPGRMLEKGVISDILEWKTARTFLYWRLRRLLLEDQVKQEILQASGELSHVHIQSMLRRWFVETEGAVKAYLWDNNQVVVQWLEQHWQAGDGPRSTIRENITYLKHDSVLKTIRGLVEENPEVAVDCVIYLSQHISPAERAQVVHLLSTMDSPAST
Assay [8] deals with Candida tropicalis. Kind of assay: In vitro antifungal assay (broth microdilution, Micromyx), C. tropicalis. It counts as cell-based. The conditions noted are these: ATCC90874, strain 0636 ATCC 90874, 35° C., approximately 24-48 hr. The procedure: as §2
Assay [9] concerns ACC1. The conditions noted are these: ACC1 isolated from rat, mouse, monkey and human; cited from earlier work.
In assay [10] the test system is ACC2. Conditions: ACC2 isolated from rat, mouse, monkey and human; cited from earlier work.
Setting [11] is: strain 5280 ATCC MYA-3626, 35° C., read-out: MIC, A. fumigatus 5280 ATCC MYA-3626.
[12] abbreviates: strain 6781 ATCC MYA-4609, 35° C., read-out: MIC, A. fumigatus 6781 ATCC MYA-4609.

Regarding `COc1ccc(F)cc1[C@H](Cn1c(=O)n([C@H]2CCCN(C)C2=O)c(=O)c2c(C)c(-n3nccn3)sc21)OC1CCOCC1` [Compound I-39, 1-((R)-2-(5-fluoro-2-methoxyphenyl)-2-((tetrahydro-2H-pyran-4-yl)oxy)ethyl)-5-methyl-3-((S)-1-methyl-2-oxopiperidin-3-yl)-6-(2H-1,2,3-triazol-2-yl)thieno[2,3-d]pyrimidine-2,4(1H,3H)-dione], the minimum inhibitory concentration (MIC) was 0.25 to 1 µg/mL (≈ 0.408 to 1.63 µM) in [1]; 0.25 to 1 µg/mL (≈ 0.408 to 1.63 µM) in [2]; greater than 4.1 µg/mL in [4]; 0.25 to 1 µg/mL (≈ 0.408 to 1.63 µM) in assay [5]; 1.1 to 2 µg/mL (≈ 1.8 to 3.26 µM) in assay [6] (setting [11]); 1.1 to 2 µg/mL (≈ 1.8 to 3.26 µM) in [6] (setting [12]). The minimum inhibitory concentration (MIC) in assay [8] lay within 0.25 to 1 µg/mL (≈ 0.408 to 1.63 µM). Besides, the figures for the pIC50 in assay [3] and in assay [7] were 8.70 to 9.15 and 8.00 to 8.70, respectively.

In the case of `O=C(c1c2ccccc2cc2ccccc12)N1CCC(N2CCC[C@@H](C(=O)N3CCOCC3)C2)CC1` [CP-640186], the pIC50 in assay [9] and in assay [10] was roughly 7.22 in each case.

Regarding `COc1ccc(F)cc1[C@H](Cn1c(=O)n([C@H]2CCCNC2=O)c(=O)c2c(C)c(-n3nccn3)sc21)OC1CCOCC1` [Compound I-37, 1-((R)-2-(5-fluoro-2-methoxyphenyl)-2-((tetrahydro-2H-pyran-4-yl)oxy)ethyl)-5-methyl-3-((S)-2-oxopiperidin-3-yl)-6-(2H-1,2,3-triazol-2-yl)thieno[2,3-d]pyrimidine-2,4(1H,3H)-dione], the MIC in [1] is 0.25 to 1 µg/mL (≈ 0.418 to 1.67 µM); in assay [2] it was 0.25 to 1 µg/mL (≈ 0.418 to 1.67 µM); in assay [4], greater than 4.1 µg/mL; in assay [5] it was 0.25 to 1 µg/mL (≈ 0.418 to 1.67 µM); in assay [6] (setting [11]), 1.1 to 2 µg/mL (≈ 1.84 to 3.34 µM); in [6] (setting [12]) it was 1.1 to 2 µg/mL (≈ 1.84 to 3.34 µM). The MIC in [8] fell in the range of 0.25 to 1 µg/mL (≈ 0.418 to 1.67 µM). In [7], this molecule gave a negative logarithm of the IC50 (pIC50) of 8.00 to 8.70.

Turning to `COc1ccc(F)cc1[C@H](Cn1c(=O)n([C@@H]2CCNC2=O)c(=O)c2c(C)c(-n3nccn3)sc21)OC1CCOCC1` [Compound I-34, 1-((R)-2-(5-fluoro-2-methoxyphenyl)-2-((tetrahydro-2H-pyran-4-yl)oxy)ethyl)-5-methyl-3-((R)-2-oxopyrrolidin-3-yl)-6-(2H-1,2,3-triazol-2-yl)thieno[2,3-d]pyrimidine-2,4(1H,3H)-dione], the MIC was 0.25 to 1 µg/mL (≈ 0.428 to 1.71 µM) in assay [1]; 0.25 to 1 µg/mL (≈ 0.428 to 1.71 µM) in assay [2]; greater than 4.1 µg/mL in [4]; 0.25 to 1 µg/mL (≈ 0.428 to 1.71 µM) in assay [5]; 1.1 to 2 µg/mL (≈ 1.88 to 3.42 µM) in assay [6] (setting [11]); 1.1 to 2 µg/mL (≈ 1.88 to 3.42 µM) in assay [6] (setting [12]). The MIC in assay [8] was 0.25 to 1 µg/mL (≈ 0.428 to 1.71 µM). Also, the negative logarithm of the IC50 (pIC50) in [7] is 8.00 to 8.70.

With `COc1ccc(F)cc1[C@H](Cn1c(=O)n([C@@H]2CCN(C)C2=O)c(=O)c2c(C)c(-n3nccn3)sc21)OC1CCOCC1` [Compound I-36, 1-((R)-2-(5-fluoro-2-methoxyphenyl)-2-((tetrahydro-2H-pyran-4-yl)oxy)ethyl)-5-methyl-3-((R)-1-methyl-2-oxopyrrolidin-3-yl)-6-(2H-1,2,3-triazol-2-yl)thieno[2,3-d]pyrimidine-2,4(1H,3H)-dione], the MIC is 0.25 to 1 µg/mL (≈ 0.418 to 1.67 µM) in [1]; 0.25 to 1 µg/mL (≈ 0.418 to 1.67 µM) in assay [2]; greater than 4.1 µg/mL in assay [4]; 0.25 to 1 µg/mL (≈ 0.418 to 1.67 µM) in [5]; 0.25 to 1 µg/mL (≈ 0.418 to 1.67 µM) in [6] (setting [11]); 0.25 to 1 µg/mL (≈ 0.418 to 1.67 µM) in assay [6] (setting [12]). Also, in assay [8], the MIC fell in the range of 0.25 to 1 µg/mL (≈ 0.418 to 1.67 µM). For the same molecule, the pIC50 in assay [3] and in [7] was 8.00 to 8.70 throughout.

One may read the MIC as the lowest concentration found to suppress growth. By pIC50 is commonly meant −log10 of the IC50, conventionally taken in molar units.

(Values after patent publication US20190330224A1, “ACC INHIBITORS AND USES THEREOF” (Gilead Apollo, LLC, priority 2015, published 2019).)
